Results from US20050273177A1, “Prosthetic device having drug delivery properties” (priority 2004, published 2005).

Experiment: In vitro PGE-1 elution from coated stents overlaid with a permeable polymer membrane, measured by HPLC
Type: physicochemical
Method: Various materials presently used in pharmaceutical preparations as solubilizers, crystallization inhibitors, suspension stabilizers and lyophilization agents were mixed with PGE-1. The mixtures were dissolved in solvent systems composed of ethanol, chloroform, water, or mixtures thereof. Prior to coating, stents (provided by different stent manufacturers) were cleaned by sonification in absolute ethanol for thirty minutes, and dried. Each stent was weighed before and after coating. The amount of PGE-1 in the coating solution was determined by high performance liquid chromatography analysis (HPLC), and used to calculate the percent by weight of PGE-1 on the stent. To confirm this value, the coating was dissolved (from the stent) and the PGE-1 content analyzed by HPLC.
Drug coatings on the stents were assessed using scanning electron microscopy (SEM) for: (a) smoothness, (b) uniformity, and (c) lack of cracking. Stents that met these criteria, were overlaid with a thin membrane of non-erodable polymer matrix to retard the release of PGE-1 from the surface of the stents. Vapor-deposition of the polymer matrix was carried out according to the manufacturer's protocol, and the thickness of the polymer matrix membrane was measured using a Tencor device.
Using the most desirable coating combination, twenty coronary stents were coated with either 100 micrograms or 250 micrograms of PGE-1, and overlaid with the polymer matrix membrane. Five stents from each drug concentration were expanded by insertion of a balloon catheter. The stents were examined by SEM after deposition of the pharmaceutical layer 14, after applying the membrane 16, and after expansion of the stents 12.
PGE-1 elution profiles were determined for each group of stents 12. In vitro PGE-1 release curves were performed using HPLC. Drug elution profiles were measured in phosphate buffered saline (pH 7.4) using a LabQuake 360° degree rotator, at ambient temperature. At each time point, the stents were removed from the one milliliter sample (typically, after 24 hours) and transferred to the next aliquot. HPLC analysis of the eluent was performed using a Waters Alliance system equipped with a 996 photodiode array detector.
HPLC Program Conditions/Settings:
Column: 4.6 mm×150 mm Reverse Phase C18
Photo-diode array UV detector set to scan 190 to 300 nm
Solvent system: 35% Acetonitrile/65% water with 0.1% acetic acid
In Example 2 a second set of twenty stents were coated as described above, except the polymer membrane overcoat 16 was twice the thickness as the former.

Period of initial burst of PGE-1 release (FIGS. 2A and 2B, thinner membrane, 100 or 250 μg PGE-1): 48-96 hours
Duration of slow, sustained release of the drug (FIGS. 2A and 2B, thinner membrane, after the initial burst): approximately sixty
PGE-1 Released (%) (Study 1, 73 days, expanded stent coated with 100 μg PGE-1, PBS pH 7.4, ambient temperature): 82%
PGE-1 Released (%) (Study 1, 73 days, expanded stent coated with 250 μg PGE-1, PBS pH 7.4, ambient temperature): 83%
PGE-1 Released (%) (Study 1, 73 days, unexpanded stent coated with 100 μg PGE-1, PBS pH 7.4, ambient temperature): 37%
PGE-1 Released (%) (Study 1, 73 days, unexpanded stent coated with 250 μg PGE-1, PBS pH 7.4, ambient temperature): 46%
PGE-1 Released (%) (Study 2 (membrane twice the thickness), 35 days, expanded stent coated with 100 μg PGE-1, PBS pH 7.4): 71%
PGE-1 Released (%) (Study 2 (membrane twice the thickness), 35 days, expanded stent coated with 250 μg PGE-1, PBS pH 7.4): 26%
PGE-1 Released (%) (Study 2 (membrane twice the thickness), 35 days, unexpanded stent coated with 100 μg PGE-1, PBS pH 7.4): 19%
PGE-1 Released (%) (Study 2 (membrane twice the thickness), 35 days, unexpanded stent coated with 250 μg PGE-1, PBS pH 7.4): 26%
SMILES: CCCCC[C@H](O)/C=C/[C@H]1[C@H](O)CC(=O)[C@@H]1CCCCCCC(=O)O [PGE-1, prostaglandin E-1]
Release profile with thicker polymer overcoat compared with thinner membrane (FIGS. 3A and 3B, membrane twice the thickness): initial release of PGE-1 is delayed and the overall amount of PGE-1 eluted from the stents 12 over time is reduced
